According to PubChem BioAssay (NCI):
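Dose response: 5 concentrations. Exposure: 48 h. Format: 96-well plates. Endpoint: linear interpolation; highest concentration if not reached. Here, GI50 denotes the concentration required for 50% inhibition of growth. TGI is the concentration that stops growth completely.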 Where a SMILES comes first, the peptide text is derived from it. The star is where a group is joined. Cbz = O=C(OCc1ccccc1)*; Bn = c1ccc(C*)cc1

Experiments:
Assay in all cases: NCI tumour cell line growth inhibition, 48 h
M19-MEL melanoma = test system: M19-MEL melanoma
HOP-18 NSCLC = test system: HOP-18 NSCLC
P388 leukemia = test system: P388 leukemia
KM20L2 colon = test system: KM20L2 colon
SN12K1 renal = test system: SN12K1 renal
XF 498 CNS = test system: XF 498 CNS
DMS 114 small cell lung = test system: DMS 114 small cell lung
RXF-631 renal = test system: RXF-631 renal
LXFL 529 NSCLC = test system: LXFL 529 NSCLC
BT-549 breast = test system: BT-549 breast
HS 578T breast = test system: HS 578T breast
T-47D breast = test system: T-47D breast
MDA-N = test system: MDA-N

Row | SMILES | TGI (M19-MEL melanoma) | TGI (HOP-18 NSCLC) | TGI (P388 leukemia) | TGI (KM20L2 colon) | TGI (SN12K1 renal) | TGI (XF 498 CNS) | TGI (DMS 114 small cell lung) | TGI (BT-549 breast) | TGI (HS 578T breast) | TGI (T-47D breast) | TGI (MDA-N) | other results
1 | CCn1c(=O)c(C(=O)O)c(Cl)c2cc3c(cc21)OCO3 | > 100 µM | > 100 µM | > 100 µM | > 100 µM | > 100 µM | > 100 µM |  |  |  |  |  | 
2 | CC(=O)OCC1OC(NC(=O)N(CCCl)N=O)C(OC(C)=O)C(OC(C)=O)C1OC(C)=O (stereo not given) | > 100 µM | > 100 µM | > 100 µM | > 100 µM | > 100 µM | > 100 µM | > 100 µM |  |  |  |  | 
3 | CC1C[C@]2(C[C@@H](C)C(=O)O2)OC2CC3(C)C4CCC5C(C)(C)OC(=O)CC[C@@]56C[C@@]46CC[C@]3(C)C12 (stereo not given in full) |  | > 100 µM |  |  |  | > 100 µM | > 100 µM |  |  |  |  | TGI (RXF-631 renal): > 100 µM; TGI (LXFL 529 NSCLC): > 100 µM
4 | N=C(N)c1ccc(-c2ccc(-c3ccc4ccccc4c3)s2)s1 |  |  |  |  |  |  |  | 46.8 µM | 4.71 µM | 4.52 µM |  | GI50 (BT-549 breast): 17.6 µM; GI50 (HS 578T breast): 2.07 µM; GI50 (T-47D breast): 1.95 µM
5 | COC(=O)C(Cc1ccc(O)cc1)NC(=O)C(COCc1ccccc1)NC(=O)OCc1ccccc1 (stereo not given) (Cbz-Ser(Bn)-Tyr-OMe; configuration not given here) |  |  |  |  |  |  |  | > 100 µM | 53 µM | 39.5 µM | 31.4 µM | 
6 | C1CSCCSCSCCS1 |  |  |  |  |  |  |  | > 100 µM | > 100 µM | > 100 µM | > 100 µM | 
7 | COc1ccc(-c2oc3cc(OC(C)=O)cc(OC(C)=O)c3c(=O)c2OC)cc1 |  |  |  |  |  |  |  |  |  | 57.9 µM | 28.3 µM | 
8 | CCCCSCC(NC(=O)/C=C/c1c(C)[nH]c(=O)[nH]c1=O)C(=O)OC (stereo not given) | 191 µM | 330 µM | 137 µM | 355 µM | 173 µM |  | 271 µM |  |  |  |  | 
9 | C=CCOCCC(CC=C)C(=O)CC(=O)OC (stereo not given) |  | > 100 µM |  | > 100 µM |  | > 100 µM |  |  |  |  |  | 
10 | CS(=O)(=O)c1ccc2nc(-c3ccc(O)cc3)sc2c1 |  |  |  |  |  |  |  | 30.5 µM |  |  | 34.4 µM | 
